Test [1] has as its system human colon cancer cells (LoVo cells). Description: Growth of tumors from human colon cancer cell xenografts in nude mice. The test is classed as in vivo. To be noted: for tumor growth versus PBS control mice: LoVo xenograft in nude mice, 100 μg intraperitoneally 2 times/week, 48 days of treatment. The protocol: FIG. 4: Effect of ip inoculation of OxA (▴), Suvorexant (◯) and Almorexant (Δ) on the growth of tumors developed by xenografting human colon cancer cells in nude mice. A. LoVo cells were inoculated in the flank of nude mice at day 0. Mice were injected 2 times/week intraperitoneally with 100 μg of OxA, Suvorexant or Almorexant in 100 μl solutions or with 100 μl of PBS (●) for controls. After 48 days of treatment, mice were sacrificed and tumor volume and weight were then recorded. The development of tumors was followed by caliper measurement. B. treatment (2 injections/week) with various doses of Almorexant (1 mg/kg (□), 2.5 mg/kg (Δ) or 5 mg/kg (◯)) compared to OxA treatment (5 mg/kg, ▴). Control was performed by injection of 100 μl PBS (●).
The inventors investigated the effect of intraperitoneal inoculation of OxA, Suvorexant and Almorexant on the growth of tumors developed by xenografting human colon cancer cells (LoVo cells) in nude mice.
(In general: A xenograft is tissue or cells of one species grown in another, often human tumour cells in immunodeficient mice.)

A further test concerns the target T1, OX1R (Homo sapiens, UniProt O43613).
T1 construct: HEK cells expressing recombinant native OX1R (HEK-OX1R) cells were seeded in 96-wells plate; expressed in transfected cells; host or cells: HEK cells (HEK-OX1R)
T1 sequence (O43613 1-425): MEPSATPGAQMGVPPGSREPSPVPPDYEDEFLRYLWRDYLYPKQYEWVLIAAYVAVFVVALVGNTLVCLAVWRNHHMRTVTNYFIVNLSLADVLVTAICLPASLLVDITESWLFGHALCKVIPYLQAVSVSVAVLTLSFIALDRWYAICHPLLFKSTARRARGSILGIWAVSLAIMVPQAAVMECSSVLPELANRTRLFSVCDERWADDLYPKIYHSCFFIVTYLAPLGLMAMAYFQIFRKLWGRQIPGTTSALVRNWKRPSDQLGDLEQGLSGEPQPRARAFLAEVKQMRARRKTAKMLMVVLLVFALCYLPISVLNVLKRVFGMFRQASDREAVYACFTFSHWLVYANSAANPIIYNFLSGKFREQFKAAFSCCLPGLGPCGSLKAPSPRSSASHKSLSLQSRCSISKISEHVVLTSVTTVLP
Description: Ca2+ mobilization assay in HEK-OX1R cells (FluoForte). The test is classed as cell-based. Here is the method:
FIG. 1: Effect of orexin-A and SB408124 antagonist on Ca2+ mobilization in HEK-OX1R cells. Top, HEK-OX1R cells were incubated with fluorescence probe (FluoForte) for 45 min. at 37° C. according to FluoForte calcium assay kit (Enzo Life Sciences). 1 μM of OxA was added to cells and fluorescence emission was measured on TECAN Infinite 200 fluorospectrophotometer. Bottom, HEK-OX1R cells were incubated with fluorescence probe (FluoForte) for 45 min. at 37° C. and then incubated with 1 μM of SB408124 for 1 h at 37° C. After pre-incubation, 1 μM of OxA was added to cells and fluorescence emission was measured.
HEK cells expressing recombinant native OX1R (HEK-OX1R) cells were seeded in 96-wells plate, grown and maintained at 37° C. in a humidified 5% CO2/air incubator. 80,000 cells/well were incubated with FluoForte probe according to FluoForte calcium assay kit (ENZO life Sciences, Farmingdale, N.Y., USA) for 45 min. at 37° C. and then incubated with or without 1 μM of SB408124 antagonist for 1 h at 37° C. After pre-incubation, 1 μM of OxA was added and fluorescence was determined using TECAN Infinite 200 fluorospectrophotometer.
On the technique in general: Calcium flux is commonly read through the fluorescence of an indicator in the cells.

A further test deals with HEK-OX1R cells. The test is described as follows: Cell growth determination, HEK-OX1R cells. The test is classed as cell-based. To be noted: 48 hr incubation, viable cells counted, OxA 0.1 μM, SB408124 increasing concentrations. The protocol:
(§1) FIG. 2: Determination of the inhibition of cellular growth of HEK-OX1R cells and colon adenocarcinoma cells (HT-29) induced by […] of OxA or various concentrations of SB408124 antagonist. HEK-OX1R cells (black column) and HT-29 cells (white column) were incubated with 0.1 μM of OxA and indicated increasing concentration of SB408124, and cells were counted after 48 hr incubation. Results are expressed as the percentage of total viable cells.
(§2) HEK-OX1R cells or colon adenocarcinoma HT-29 cells were seeded, grown and maintained at 37° C. in a humidified 5% CO2/air incubator. After 24 hr culture, cells were treated with or without Orexin-A peptide or SB408124 antagonist, previously dissolved in DMSO, to be tested at the concentration indicated in the figure legends. After 48 hr of treatment, adherent cells were harvested by TriplE (Life Technologies, Saint Aubin, France) and manually counted. Apoptosis was determined using the Guava PCA system and the Guava nexin kit.

Test [2] concerns colon adenocarcinoma HT-29 cells. Description: Cell growth determination, HT-29 cells. To be noted: 48 hr incubation, viable cells counted, OxA 0.1 μM, SB408124 increasing concentrations. The test is classed as cell-based. Here is the method:
as §1, §2

Test [3] has as its system OX1R expressing colon adenocarcinoma cells, HT-29. Description: Apoptosis assay (annexin V-PE binding, Guava nexin kit), HT-29 cells. The test is classed as cell-based. The note with it: for apoptosis (annexin V-PE binding): HT-29 cells, 48 h, 1 μM orexin-A or various concentrations of SB408124. Here is the method:
FIG. 3: Effect of orexin-A and SB408124 antagonist on apoptosis in OX1R expressing colon adenocarcinoma cells, HT-29. HT-29 cells were challenged with 1 μM orexin-A or various concentration of SB408124 for 48 h. Apoptosis was measured by determination of annexin V-PE binding, and results are expressed as the percentage of apoptotic cells. Results are means±SE of three experiments. ***P<0.001.
as §2

This note sets out measurements from patent US10894042B2, “Methods and pharmaceutical compositions for the treatment of cancer” (INSERM (INSTITUT NATIONAL DE LA SANTÉ ET DE LA RECHERCHE …, priority 2014, dated 2021).

Where no end group is shown, it is not given here.

In the case of `CNC(=O)[C@@H](c1ccccc1)N1CCc2cc(OC)c(OC)cc2[C@@H]1CCc1ccc(C(F)(F)F)cc1` [Almorexant], in test [1], the “tumor growth versus PBS control mice” value is on record as “significantly smaller tumors”. In test [1] (LoVo xenograft in nude mice, 1, 2.5 or 5 mg/kg, 2 injections/week), the “tumor growth inhibition, dose dependence” value is listed as “induce in a dose-dependent manner tumor growth inhibition”.
Take `Cc1cc(NC(=O)Nc2ccc(N(C)C)cc2)c2cc(F)cc(F)c2n1` [SB408124]: the “agonist/antagonist character for OX1R-mediated calcium mobilization” value on OX1R is reported as “full antagonist”. In addition, the “effect on OxA-induced Ca2+ mobilization” value on OX1R (preincubation with 1 μM SB408124 for 1 h at 37° C., then 1 μM OxA) is recorded as “totally abolished”. The “inhibition of cellular growth” value (with HEK-OX1R cells; in test [2]) was “strong inhibition in a dose-dependent manner” in each case. Moreover, in test [3], the “apoptosis (annexin V-PE binding)” value was “induce in a dose-dependent manner cell apoptosis”. Further, in test [3] (colon cancer cell line), the “agonist/antagonist character for OX1R-mediated mitochondrial apoptosis” value was “full agonist”.
As to `Cc1ccc(-n2nccn2)c(C(=O)N2CCN(c3nc4cc(Cl)ccc4o3)CC[C@H]2C)c1` [Suvorexant], the “tumor growth versus PBS control mice” value in test [1] is given as “significantly smaller tumors”.
In the case of “OxA: orexin A, a 33 amino acid neuropeptide, the natural OX1R agonist (QPLPDCCRQKTCSCRLYELLHGAGNHAAGILTL; ends and bridges not checked; cysteine pairing not given here; UniProt O43612 34-66, looked up)”, in the test with OX1R (1 μM OxA, fluorescence (FluoForte)), the “Ca2+ mobilization” value is “large and transient”. Moreover, the “inhibition of cellular growth” value (in the test with HEK-OX1R cells; in test [2]) was “strong inhibition” each time. Moreover, in test [3], the “apoptosis (annexin V-PE binding)” value is on record as “induced an apoptotic effect”. The “tumor growth versus PBS control mice” value in test [1] is given as “significantly smaller tumors”.
